Source: patent US20160175351A1, “CANCER TREATMENT” (DUKE UNIVERSITY, priority 2013, published 2016)
Where a SMILES comes first, the peptide text is derived from it. The star is where a group is joined. Cbz = O=C(OCc1ccccc1)*; CHN2 = [N-]=[N+]=C*; tBu = CC(C)(C)*

Assays:
cathepsin B = cathepsin B (Homo sapiens, UniProt P07858); conditions: known from literature (McGowan 1989; Barrett 1982); cited from earlier work
cathepsin H = target: T1, cathepsin H (Homo sapiens, UniProt P09668); conditions: known from literature (McGowan 1989; Barrett 1982); cited from earlier work
T1 sequence (P09668 98-335): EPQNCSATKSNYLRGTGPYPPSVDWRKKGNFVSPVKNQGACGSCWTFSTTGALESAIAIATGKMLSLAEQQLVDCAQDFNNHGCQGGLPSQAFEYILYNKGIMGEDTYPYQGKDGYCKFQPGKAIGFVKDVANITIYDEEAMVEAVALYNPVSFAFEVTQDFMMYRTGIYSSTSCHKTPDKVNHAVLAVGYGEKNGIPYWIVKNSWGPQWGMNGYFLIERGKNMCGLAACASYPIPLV

cathepsin L = cathepsin L (Homo sapiens, UniProt P07711); conditions: known from literature (McGowan 1989; Barrett 1982); cited from earlier work
calpain = conditions: known from literature (McGowan 1989; Barrett 1982); cited from earlier work
papain = target: T2, papain (Carica papaya, UniProt P00784); conditions: known from literature (McGowan 1989; Barrett 1982); cited from earlier work
T2 sequence (P00784 134-345): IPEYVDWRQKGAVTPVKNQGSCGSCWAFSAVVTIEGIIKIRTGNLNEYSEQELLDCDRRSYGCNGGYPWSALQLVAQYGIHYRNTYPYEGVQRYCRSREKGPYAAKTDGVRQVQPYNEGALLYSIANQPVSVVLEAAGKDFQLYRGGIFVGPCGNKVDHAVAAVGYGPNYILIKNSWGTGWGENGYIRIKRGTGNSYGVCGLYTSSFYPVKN

human Ctr1 = test: Ctr1 ectodomain cleavage, anti-Ctr1 immunoblot of Ctr1-/- MEFs stably transfected with human Ctr1 (FIG. 5); type: cell-based; conditions: MEFs expressing human Ctr1, inhibitor 10 μM, 16 hours, immunoblot (lane 3)
Description: (§1) Each of the above were either untreated (lanes 1 and 2), or treated with the Cathepsin L inhibitor Z-FY(tBu)-DMK (lanes 3 and 4). F=full-length, T=truncated.
(§2) Mouse embryonic fibroblasts from Ctr1^−/− embryos were stably transfected with the human Ctr1 and the human Ctr1 containing the proline to alanine mutation at position 25 (Ctr1^P25A). Cells were cultured in medium supplemented with 20% fetal bovine serum and treated with DMSO or 10 μM cysteine protease Cathepsin L, Z-FY(t-Bu)-DMK and harvested 16 hours later. Total proteins were isolated from the cells by homogenizing cells in ice cold PBS supplemented with 1% Triton-X, 0.1% SDS, and 1 mM EDTA. Cell debris was removed by centrifugation and the total amounts of soluble proteins were quantified in each sample. Equal amounts of proteins were separated on tris/glycine gradient gel, transferred to nitrocellulose membrane and blocked with 5% non-fat milk in Tris buffered saline supplemented with 0.05% Tween (TBST) for 1 h. Membranes were incubated with anti-Ctr1 antibody (1:1000) followed by anti-rabbit-HRP coupled antibody (1:5000) and bands detected by enhanced chemiluminescent substrate. Anti-Actin antibody was used as loading control.
(§3) Inhibition of the cysteine protease Cathepsin L, Z-FY(t-Bu)-DMK (10 μM) (lanes 3 and 4) results in an increased levels of the copper and cisplatin binding full length form of Ctr1. […]

[1] = tested on: human Ctr1 containing the proline to alanine mutation at position 25 (Ctr1^P25A); test: Ctr1 ectodomain cleavage, anti-Ctr1 immunoblot of Ctr1-/- MEFs stably transfected with human Ctr1 P25A (FIG. 5); type: cell-based; conditions: MEFs expressing Ctr1^P25A, inhibitor 10 μM, 16 hours, immunoblot (lane 4)
Description: as §1, §2, §3

[2] = tested on: Ctr1-/- MEFs expressing wild type Ctr1; test: Cisplatin uptake/accumulation by ICP-MS in MEFs expressing wild type Ctr1 (FIG. 6); type: cell-based, mouse; conditions: inhibitor 10 μM over night, then cisplatin 200 μM for 2 h
Description: (§4) FIG. 6 is a graph showing platinum accumulation in Ctr1 knockout MEFs (Ctr1^−/−), wild-type MEFs (Ctr1), or MEFs expressing Ctr1 with a Pro25Ala mutation (Ctr1^P25A). Each of the above were either untreated (1, 2 and 3), or treated with the Cathepsin L inhibitor Z-FY(tBu)-DMK (4, 5 and 6).
(§5) Mouse embryonic fibroblasts from Ctr1^−/− embryos were stably transfected with the human Ctr1 and the human Ctr1 containing the proline to alanine mutation at position 25 (Ctr1^P25A). […] Cells were rinsed in three times with ice cold PBS before the cells were scraped and divided into two tubes; one for measuring metal concentration and one for protein quantification. […] Platinum concentrations in the digested samples were measured by inductively coupled plasma mass spectrometry ([…]) and normalized to the total amount of protein in the sample.
(§6) Mouse Ctr1^−/− MEFs were transfected with vector alone (Ctr1^−/−), the expression vector expressing wild type Ctr1 (Ctr1) or the Ctr1^P25A mutant protein (Ctr1^P25A). Cells were incubated with cisplatin (200 μM for 2 h), or cisplatin plus the Cathepsin L inhibitor Z-FY(t-Bu)-DMK (10 μM) as indicated, harvested and cisplatin accumulation measured by ICP-MS and plotted on the Y-axis.

[3] = tested on: Ctr1-/- MEFs expressing Ctr1^P25A; test: Cisplatin uptake/accumulation by ICP-MS in MEFs expressing Ctr1 P25A (FIG. 6); type: cell-based, mouse; conditions: inhibitor 10 μM over night, then cisplatin 200 μM for 2 h
Description: as §4, §5, §6

[4] = tested on: Ctr1 ectodomain cleavage in wild type mouse embryonic fibroblasts; test: Ctr1 ectodomain cleavage, anti-Ctr1 immunoblot of wild type MEFs (FIG. 4); type: cell-based; conditions: E64d 10 μM, harvested 16 hours later
Description: (§7) FIG. 4 is an immunoblot of protein extracts from wild-type MEFs (lanes 1-4) and Cathepsin L^−/− MEFs (lanes 5-8) with an anti-Ctr1 antibody and an anti-tubulin antibody. Lanes 1 and 2 are duplicate samples from untreated wild type MEFs. Lanes 3 and 4 are duplicate samples from wild-type MEFs treated with the Cathepsin L inhibitor E64d. Lanes 5 and 6 are duplicate samples from untreated Cathepsin L^−/− MEFs. Lanes 7 and 8 are duplicate samples from Cathepsin L^−/− MEFs treated with the Cathepsin L inhibitor E64d.
(§8) Mouse embryonic fibroblasts from wild type and CatL^−/− littermates were cultured in medium supplemented with 10% fetal bovine serum and treated with DMSO or […] of the cell permeable cysteine protease inhibitor E64d and harvested 16 hours later. Total proteins were isolated from the cells by homogenizing cells in ice cold PBS supplemented with 1% Triton-X, 0.1% SDS, and 1 mM EDTA. Cell debris was removed by centrifugation and the total amounts of soluble proteins were quantified in each sample. Equal amounts of proteins were separated on Tris/glycine gradient gel, transferred to nitrocellulose membrane and blocked with 5% non-fat milk in Tris buffered saline supplemented with 0.05% Tween (TBST) for 1 h. Membranes were incubated with anti-Ctr1 antibody (1:1000) followed by anti-rabbit-HRP coupled antibody (1:5000) and bands detected by enhanced chemiluminescent substrate. […]

[5] = tested on: Ctr1 ectodomain cleavage in Cathepsin L-/- mouse embryonic fibroblasts; test: Ctr1 ectodomain cleavage, anti-Ctr1 immunoblot of Cathepsin L-/- MEFs (FIG. 4); type: cell-based
Description: as §7, §8

Sequence of cathepsin L (P07711 114-333): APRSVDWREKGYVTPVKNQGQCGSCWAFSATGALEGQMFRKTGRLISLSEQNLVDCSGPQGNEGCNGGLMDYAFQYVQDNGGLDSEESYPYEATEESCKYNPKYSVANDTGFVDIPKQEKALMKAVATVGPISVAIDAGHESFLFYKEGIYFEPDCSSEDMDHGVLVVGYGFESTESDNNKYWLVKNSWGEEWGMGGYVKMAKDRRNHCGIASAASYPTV

## CC(C)C[C@H](NC(=O)[C@H]1O[C@@H]1C(=O)O)C(=O)NCCCCN=C(N)N (relative stereo) [E-64, trans-Epoxysuccinyl-L-leucylamido(4-guanidino)butane]
Cathepsin B
  inhibition of cathepsin B: inhibit
Cathepsin H
  inhibition of cathepsin H: inhibit
Cathepsin L
  inhibition of cathepsin L: inhibit
calpain
  inhibition of calpain: inhibit
papain
  inhibition of papain: inhibit

## CC(C)(C)Oc1ccc(CC(NC(=O)C(Cc2ccccc2)NC(=O)OCc2ccccc2)C(=O)C=[N+]=[N-])cc1 (stereo not drawn) [Z-FY(t-Bu)-DMK, benzyl (1-((1-(4-(tert-butoxy)phenyl)-4-diazo-3-oxobutan-2-yl)amino)-1-oxo-3-phenylpropan-2-yl)carbamate] (Cbz-Phe-Tyr(tBu)-CHN2; configuration not given here)
Human Ctr1
  levels of the copper and cisplatin binding full length form of Ctr1: increased
[1]
  levels of the copper and cisplatin binding full length form of Ctr1: increased
[2]
  cisplatin accumulation (platinum by ICP-MS, normalized to protein): enhanced
[3]
  cisplatin accumulation (platinum by ICP-MS, normalized to protein): enhanced

## CCOC(=O)[C@H]1O[C@@H]1C(=O)N[C@@H](CC(C)C)C(=O)NCCC(C)C (relative stereo) [E64d, (2S,3S)-trans-Epoxysuccinyl-L-leucylamido-3-methylbutane ethyl ester]
[4]
  levels of cleaved Ctr1: dramatic reduction
[5]; Cathepsin L knock out MEFs, E64d 10 μM, 16 hours
  levels of cleaved Ctr1: not
[5]; Cathepsin L-/- MEFs treated with E64d vs not treated
  full-length Ctr1: increase
